In patent US6486158B1, “[4,5]-fused-3,6-disubstituted-pyridazines with sulfur-containing substituents in position three for the treatment of neoplasia” (Cell Pathways, Inc., priority 1998, dated 2002):

Columns and labels:
[1] = test system: human colon carcinoma cell line, SW-480; experiment: Sulforhodamine B (SRB) tumor cell growth inhibition assay; assay type: cell-based; details: SW-480 cells, six days continuous exposure; for inhibition at 100 µM: Homo sapiens, SW480, 144 h
Experimental: The compounds of this invention were assayed for their growth inhibitory activity on the human colon carcinoma cell line, SW-480 obtained from ATCC (Rockville, Md.), to ascertain the degree of growth inhibition (Skehan et al., J. Natl. Cancer Instit. 82:1107-1112, 1990). Growth inhibition of this cell line is indicative of a benefit on precancerous lesions and neoplasms. The cell line and growth assay employed for such experiments are well characterized, and are used to evaluate the anti-neoplastic properties of compounds (Piazza, Cancer Research Vol. 57, pp. 2452-2459, 1997). The assay is used by the United States National Cancer Institute in its screening program for new anti-cancer drugs.
Drug stock solutions were made in 100% DMSO and were then diluted with RPMI media for cell culture testing. All drug solutions were prepared fresh on the day of testing. The cultured cells were obtained at passage #99 and grown in RPMI media supplemented with 5% fetal calf serum, and 2 mM glutamine, […] penicillin, 100 U/ml streptomycin, and 0.25 μg/ml amphotericin. The cultures were maintained in a humidified atmosphere of 95% air and 5% CO2 at 37° C. The cultures were passaged at preconfluent densities using a solution of 0.05% trypsin and 0.53 mM EDTA. Cells were plated at 1000 cells/well for 96 well flat-bottom microtiter plates.
Tumor cell growth inhibition was assessed using the Sulforhodamine B (SRB) protein binding assay. In this assay, tumor cells were plated in 96-well plates and treated with drug-containing media for six days (continuous exposure). For each plate, 6 wells were designated as no treatment controls, six wells as vehicle (0.1% DMSO) controls, and the remaining wells for drug dilutions with three wells per drug concentration. At the end of the exposure period, the cells were fixed and stained with sulforhodamine B, a protein binding dye. The dye was then solubilized, and the optical density of the resulting solution was determined on a 96-well plate reader. The mean optical density of the treated wells was then divided by the mean optical density in the control wells (6 wells of each) to determine the effect of the drug on the cells. Dye intensity is proportional to the number of cells or amount of protein per well. The resultant “percent inhibition” values, which then represents the degree of growth inhibition, for the indicated compounds from the Examples are tabulated in Table 1.
For one compound of this invention, an IC50 value was determined. An IC50 value is equivalent to the concentration of compound needed to inhibit tumor cell growth by 50%. The IC50 value was obtained graphically by plotting and connecting the mean growth inhibition values for each drug concentration tested. The experiment included three wells per drug concentration. Concentration was plotted on a log scale on the X-axis.

[2] = target: T1, purified cyclooxygenase Type 1 (COX I) (Ovis aries, UniProt P05979); experiment: Cyclooxygenase (COX I) inhibition, purified enzyme; assay type: biochemical; details: 100 μM compound, arachidonic acid 100 μM, 2.0 min at 37° C., COX I from ram seminal vesicles
T1 construct: The COX I was purified from ram seminal vesicles; from tissue; host or cells: ram seminal vesicles
T1 sequence (P05979 25-600): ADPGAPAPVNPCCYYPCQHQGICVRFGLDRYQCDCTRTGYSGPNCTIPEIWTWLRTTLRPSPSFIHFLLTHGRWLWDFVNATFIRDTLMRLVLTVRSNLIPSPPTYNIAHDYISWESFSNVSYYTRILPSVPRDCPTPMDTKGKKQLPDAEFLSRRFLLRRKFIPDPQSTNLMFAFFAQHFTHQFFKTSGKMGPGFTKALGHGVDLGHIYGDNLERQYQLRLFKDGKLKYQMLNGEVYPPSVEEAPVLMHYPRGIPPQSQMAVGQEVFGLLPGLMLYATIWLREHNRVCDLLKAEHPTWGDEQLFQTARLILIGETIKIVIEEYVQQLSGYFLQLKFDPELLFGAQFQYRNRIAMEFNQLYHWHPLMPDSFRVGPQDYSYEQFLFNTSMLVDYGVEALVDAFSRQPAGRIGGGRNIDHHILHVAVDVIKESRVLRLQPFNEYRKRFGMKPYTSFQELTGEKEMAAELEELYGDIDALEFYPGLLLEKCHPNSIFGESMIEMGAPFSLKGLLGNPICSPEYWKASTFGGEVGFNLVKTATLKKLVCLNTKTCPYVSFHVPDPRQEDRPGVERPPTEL
Experimental: COX I catalyzes the formation of prostaglandins and thromboxane by the oxidative metabolism of arachidonic acid. Compounds of this invention, as well as a positive control, (sulindac sulfide) were evaluated to determine whether they inhibited purified cyclooxygenase Type 1 (see Table 3 below).
The COX I was purified from ram seminal vesicles, as described by Boopathy, R. and Balasubramanian, J. 239:371-377, 1988. COX I activity was assayed as described by Evans, A. T. et al., “Actions of Cannabis Constituents on Enzymes Of Arachidonate Metabolism Anti-Inflammatory Potential,” Biochem. Pharmacol., 36:2035-2037, 1987. Purified COX I was incubated with arachidonic acid (100 μM) for 2.0 min at 37° C. in the presence or absence of test compounds. The assay was terminated by the addition of TCA, and COX I activity was determined by absorbance at […].

Row | SMILES | % Growth Inhibition at 100 μM [1] [%] | COX I % Inhibition (100 μM) [2] [%] | inhibition at 100 µM [2] [%] | inhibition at 100 µM [1] [%] | melting point [°C]
1 | c1ccc(-c2nnc(SCc3ccc4ccccc4c3)c3ccccc23)cc1 [Example 20, 1-(2′-Naphthylmethylthio)-4-Phenylphthalazine] | <50 | <25 | – | – | –
2 | O=S(=O)(Cc1ccccc1)c1nnc(-c2ccccc2)c2ccccc12 [Example 18, 1-(Benzylsulfonyl)-4-Phenylphthalazine] | – | – | 81 | – | –
3 | COC(=O)Cc1nnc(Sc2ccccc2)c2ccccc12 [Example 19, Methyl-2-(4-Phenylthiophthalazinyl)acetate] | 61 | <25 | – | – | –
4 | C=CCSc1nnc(-c2ccccc2)c2ccccc12 [Example 2, 1-(2-Propenylthio)-4-Phenylphthalazine] | – | – | 62 | 87 | 83
5 | CCSc1nnc(-c2ccccc2)c2ccccc12 [Example 35, 1-Ethylthio-4-Phenylphthalazine] | – | – | – | – | 93
6 | Fc1ccc(CSc2nnc(-c3ccccc3)c3ccccc23)cc1 [Example 11, 1-(4-Fluorobenzylthio)-4-Phenylphthalazine] | – | – | < 25 | 76 | 104
7 | c1ccc(CSc2nnc(-c3ccccc3)c3ccccc23)cc1 [Example 1, 1-Benzylthio-4-Phenylphthalazine] | – | – | 30 | 85 | 92
8 | Clc1cccc(CSc2nnc(-c3ccccn3)c3ccccc23)c1 [Example 22, 1-(3-Chlorobenzylthio)-4-(2-Pyridyl)-Phthalazine] | – | – | < 25 | 88 | –
9 | CC(C)(C)OC(=O)CSc1nnc(-c2ccccc2)c2ccccc12 [Example 21, 1-(t-Butyl 2′Mercaptoacetate)-4-Phenylphthalazine] | 51 | – | – | – | –
10 | CSc1ccc(/C=C2/C(C)=C(CC(=O)O)c3cc(F)ccc32)cc1 [Sulindac sulfide, sulindac sulfide, reference compound] | – | – | 97 | – | –
11 | CSc1nnc(-c2ccccc2)c2ccccc12 [Example 3, 1-Methylthio-4-Phenylphthalazine] | – | – | 73 | < 50 | 147
12 | Clc1cccc(CSc2nnc(-c3ccccc3)c3ccccc23)c1 [Example 4, 1-(3-Chlorobenzylthio)-4-Phenylphthalazine] | – | – | < 25 | 81 | 85
